This is an account of results in patent US5733931A, “Cyclohexanediurea derivative and process for its production” (Nissin Food Products Co., Ltd., priority 1993, dated 1998).

In test [1] the target is ACAT (Acyl-CoA: cholesterol acyltransferase) enzyme of rabbit liver microsome. As to the kind of experiment: Inhibitory effect on ACAT enzyme (No.1), rabbit liver microsome. It is filed as biochemical. The note with it: Table 9. On the procedure: 1) Inhibitory effect on ACAT (Acyl-CoA: cholesterol acyltransferase) enzyme (No.1)
Compounds of the invention were tested for their inhibitory effects on ACAT enzyme of rabbit liver microsome by the method of J. G. Heider (J. of Lipid Res., vol. 24, 1127-1134, 1983). More specifically, the test was done by measuring the amount of labelled cholesterol oleate ester produced from oleic acid CoA (coenzyme A) labelled by radiation.
Background: Liver microsomes are vesicles of endoplasmic reticulum, rich in cytochrome P450 enzymes.

The target in test [2] is ACAT enzyme of rabbit liver microsomes. Nature of the test: Inhibitory effect on ACAT enzyme (No.2), rabbit liver microsomes. It is filed as biochemical. The note with it: pH 7.4, 37° C., 60 minutes, Table 10. The protocol: (§1) 2) Inhibitory effect on ACAT (Acyl-CoA: cholesterol acyltransferase) enzyme (No.2)
(§2) [2-1] ACAT enzyme activities of rabbit liver and small intestine mucosa microsomes
(§3) A white male rabbit was fed with a […] cholesterol-containing food for four weeks and bleeding-slaughtered to extract its liver and small intestine. Microsomes of the liver and small intestine mucosa were prepared by the method of C. Marco et al. (Biochim. Biophys. Acta, 617, 458-471, 1980).
(§4) ACAT enzyme activities of the microsomes were determined by the method of J. G. Heider (J. Lipid Res., 24, 1127-1134, 1983). A test sample dissolved in 1% dimethylsulfoxide was added to a microsome fraction (100 μg), a phosphoric acid buffer (0.154M) having pH 7.4, 1-^14 C-oleoyl CoA (36 μM), dithiosleitol (2 mM) and bovine blood serum albumin (36 μg/ml). The reaction mixture adjusted to a final capacity of 0.5 ml was incubated at 37° C. for 60 minutes. A mixture (6 ml) of chloroform and methanol (2:1) was added and the reaction was stopped. Cholesterol oleate was extracted with chloroform and separated by thin-layer chromatography. ACAT enzyme activities of the microsome fractions were determined by radiation measurement.

Test [3] concerns the target T1, ACAT enzyme of rabbit small intestine mucosa microsomes (Oryctolagus cuniculus, UniProt G1SFD9).
T1 construct: Microsomes of the liver and small intestine mucosa were prepared; from tissue; host or cells: small intestine mucosa microsomes of a cholesterol-fed white male rabbit
T1 sequence (G1SFD9 1-524): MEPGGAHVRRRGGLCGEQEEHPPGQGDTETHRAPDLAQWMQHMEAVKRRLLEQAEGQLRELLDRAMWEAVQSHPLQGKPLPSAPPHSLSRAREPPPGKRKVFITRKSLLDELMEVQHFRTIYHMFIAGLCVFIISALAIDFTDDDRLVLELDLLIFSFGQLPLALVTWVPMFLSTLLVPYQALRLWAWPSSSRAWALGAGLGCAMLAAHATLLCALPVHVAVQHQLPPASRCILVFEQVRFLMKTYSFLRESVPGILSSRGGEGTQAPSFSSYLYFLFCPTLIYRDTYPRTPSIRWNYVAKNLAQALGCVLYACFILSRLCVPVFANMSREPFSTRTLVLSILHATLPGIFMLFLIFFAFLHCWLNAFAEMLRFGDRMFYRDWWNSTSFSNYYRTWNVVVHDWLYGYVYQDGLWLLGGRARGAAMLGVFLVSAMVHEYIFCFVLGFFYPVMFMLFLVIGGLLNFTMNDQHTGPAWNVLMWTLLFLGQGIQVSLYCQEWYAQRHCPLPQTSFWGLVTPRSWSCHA
As to the kind of experiment: Inhibitory effect on ACAT enzyme (No.2), rabbit small intestine mucosa microsomes. The note with it: pH 7.4, 37° C., 60 minutes, Table 10. Format: biochemical. The protocol:
as §1, §2, §3, §4

The subject of test [4] is ACAT enzyme of human HepG2 cells. As to the kind of experiment: ACAT enzyme activity of human HepG2 cells (microsome fractions). The following applies: Table 11, read-out: IC50, inhibitory effect on ACAT enzyme activity, human HepG2. Format: biochemical. On the procedure:
as §4
(§5) [2-2] ACAT enzyme activities of human HepG2 and CaCo2 cells
(§6) Human HepG2 and CaCo2 cells purchased from ATCC (AMERICAN TYPE CULTURE COLLECTION) were used in this test.
(§7) Using RPMI 1640 medium for HepG2 and DMEM medium for CaCo2, HepG2 and CaCo2 cells were cultured with 40 ml of each medium containing 10% bovine blood serum, 50 I.U. of penicillin and 50 μg/ml of streptomycin in a 5% CO2 incubator at 37° C. The cells were then monolayer-culturedwith 80 ml of each medium containing […] of cholesterol and 5 μg/ml of 25-0H cholesterol in a 175 cm flask for 5 hours. The homogenizes of these cells were subjected to centrifugation at 105,000 g to collect microsome fractions. ACAT enzyme activities of the microsome fractions were determined by the above-mentioned method.

Test [5] relates to ACAT enzyme of human CaCo2 cells. As to the kind of experiment: ACAT enzyme activity of human CaCo2 cells (microsome fractions). Format: biochemical. The note with it: Table 11, read-out: IC50, inhibitory effect on ACAT enzyme activity, human CaCo2. On the procedure:
as §4, §5, §6, §7

Test [6] has as its system serum cholesterol. Nature of the test: Serum cholesterol lowering effect in rat having high cholesterol [3-1]. It is filed as in vivo, SD-type (Sprague-Dawley) male rat. The following applies: oral, once a day for 5 days, dissolved in saline, Table 12. On the procedure:
3) Cholesterol Lowering Effect
[3-1] Using a rat having high cholesterol, compounds of the invention were tested for their serum cholesterol lowering effects by the following method. A 6-week-old SD-type (Sprague-Dawley) male rat was fed with food containing 1% of cholesterol, 0.5% of cholic acid and 5% of olive oil for 2 days and then orally administered the food and a compound of the invention as dissolved in saline once a day for 5 days starting on day 3. Four hours after the final administration, a blood sample was taken. The total cholesterol in the serum of the test group was measured and compared with that of the control group.

The test system of test [7] is serum cholesterol. As to the kind of experiment: Serum cholesterol lowering effect in rat having high cholesterol [3-2]. Format: in vivo, SD-type (Sprague-Dawley) male rat. The note with it: oral, once a day for the last 5 days, Tween 80 and saline suspension, Table 13. The protocol: [3-2] Using a rat having high cholesterol, compounds of the invention were tested for their serum cholesterol lowering effects by the following method. A 6-week-old SD-type (Sprague-Dawley) male rat was fed with food containing 1% of cholesterol, 0.5% of cholic acid and 5% of olive oil for 7 days. For the last 5 days, a test sample suspended in some drops of Tween 80 and saline was orally administered once a day. Four hours after the final administration, a blood sample was taken from celiac aorta of the rat under etherization. The total cholesterol in the serum of the test group was measured by the oxygen method and compared with that of the control group.

Broadly, the IC50 is the concentration at which inhibition is half-maximal.

With `CC1CCC(N(C[C@H]2CC[C@H](CN(C(=O)Nc3ccc(N(C)C)cc3)C3CCC(C)CC3)CC2)C(=O)Nc2ccc(N(C)C)cc2)CC1` (relative stereo) [Example 28, Trans-1,4-bis[[3-(4-dimethylaminophenyl)-1-(4-methylcyclohexyl)ureido]methyl]cyclohexane], the IC50 came to 25 nM in test [1]; 42 nM in test [2]; 30 nM in test [3]; 1.2 nM in test [4]; 0.52 nM in test [5]. In addition, the “Cholesterol lowering effect, % (serum total cholesterol vs control group)” value (“Cholesterol lowering effect, %” for short) stood at 106% in test [6] (3 mg/kg), 100% in test [6] (10 mg/kg), 70.2% in test [7] (1 mg/kg) and 106.5% in test [7] (3 mg/kg).

Consider `CN(C)c1ccc(NC(=O)N(C[C@H]2CC[C@H](CN(C(=O)Nc3ccc(N(C)C)cc3)C3CCCCC3)CC2)C2CCCCC2)cc1` [Example 12, Trans-1,4-bis[[1-cyclohexyl-3-(4-dimethylaminophenyl)ureido]methyl]cyclohexane], for which the IC50 is 36 nM in test [2], 24 nM in test [3], 1.1 nM in test [4] and 0.74 nM in test [5]. Moreover, the entries for the “Cholesterol lowering effect, %” value in test [7] (1 mg/kg) and in test [7] (3 mg/kg) were 96.2% and 92.6%, respectively.

Regarding `CN(C)c1ccc(NC(=O)N(C[C@H]2CC[C@H](CN(C(=O)Nc3ccc(N(C)C)cc3)C3CCCCC3)CC2)C2CCCCC2)cc1` [Example 12-1, Trans-1,4-bis[[1-cyclohexyl-3-(4-dimethylaminophenyl)ureido]methyl]cyclohexane], the IC50 is 78 nM in test [2], 29 nM in test [3], 1.5 nM in test [4] and 1.5 nM in test [5]. For the same compound, the results for the “Cholesterol lowering effect, %” value in test [7] (1 mg/kg) and in test [7] (3 mg/kg) were 100.4% and 108.3%, respectively.

`O=C(Nc1ccc(N2CCCCC2)cc1)N(C[C@H]1CC[C@H](CN(C(=O)Nc2ccc(N3CCCCC3)cc2)C2CCCCC2)CC1)C1CCCCC1` [Example 13, Trans-1,4-bis[[1-cyclohexyl-3-(4-piperidinophenyl)ureido]methyl]cyclohexane]: the IC50 in test [2] was 35 nM; in test [3] it was 130 nM; in test [4], 0.86 nM; in test [5], 1.1 nM. Besides, the “Cholesterol lowering effect, %” value stood at 76.8% in test [7] (1 mg/kg) and 96.2% in test [7] (3 mg/kg).

For the compound `O=C(Nc1ccc(N2CCCC2)cc1)N(C[C@H]1CC[C@H](CN(C(=O)Nc2ccc(N3CCCC3)cc2)C2CCCCC2)CC1)C1CCCCC1` [Example 14-1, Trans-1,4-bis[[1-cyclohexyl-3-(4-pyrrolidinophenyl)ureido]methyl]cyclohexan], the IC50 is 180 nM in test [2], 140 nM in test [3], 0.4 nM in test [4] and 0.8 nM in test [5]. For the same compound, the “Cholesterol lowering effect, %” value in test [7] (1 mg/kg) is 80.9%; in test [7] (3 mg/kg), 96.2%.

Regarding `O=C(Nc1ccc(N2CCCCCC2)cc1)N(C[C@H]1CC[C@H](CN(C(=O)Nc2ccc(N3CCCCCC3)cc2)C2CCCCC2)CC1)C1CCCCC1` [Example 14-2, Trans-1,4-bis[[1-cyclohexyl-3-(4-homopiperidinophenyl)ureido]methyl]cyclohexane], the IC50 stood at 62 nM in test [2], 52 nM in test [3], 0.27 nM in test [4] and 1.6 nM in test [5].

On to `CN(C)c1ccc(NC(=O)N(C[C@H]2CC[C@H](CN(C(=O)Nc3ccc(N(C)C)cc3)C3CCCCCC3)CC2)C2CCCCCC2)cc1` [Example 22, Trans-1,4-bis[[1-cycloheptyl-3-(4-dimethyaminophenyl)ureido]methyl]cyclohexane], for which the IC50 in test [2] came to 83 nM; in test [3], 18 nM; in test [4], 0.32 nM; in test [5], 0.22 nM. For the same compound, the “Cholesterol lowering effect, %” value in test [7] (1 mg/kg) worked out at 77.6%; in test [7] (3 mg/kg) it was 97.2%.

With `CN(C)c1ccc(NC(=O)N(Cc2cccc(CN(C(=O)Nc3ccc(N(C)C)cc3)C3CCCCCC3)c2)C2CCCCCC2)cc1` [YM-17E, reference compound], the IC50 in test [1] came out at 23 nM; in test [2], 23 nM; in test [4], 9.6 nM; in test [5], 14 nM. Moreover, the “Cholesterol lowering effect, %” value in test [6] (3 mg/kg) came to 38%; in test [6] (10 mg/kg), 91%; in test [7] (3 mg/kg), 38.0%.
